Patent US20250236611A1, “PYRAZOLE COMPOUNDS AND USES THEREOF” (ALCON INC., priority 2021, published 2025)

What was measured:
Type in all cases: biochemical
Details in all cases: 10 nM JAK enzyme, 800 nM Abl peptide, room temperature 75 min
[1] = biological target: JAK1 (Homo sapiens, UniProt P23458); experiment: JAK assay (KINASE-GLO luminescent kinase assay), JAK1
Description: (§1) All compounds were initially prepared as 10 mM stocks in anhydrous dimethylsulfoxide (DMSO). A 20 μL aliquot of the 10 mM solutions was transferred to individual wells in column 1 of a 96-well polypropylene microtiter plate (Corning #3363) and diluted with DMSO to give a final compound concentration of 4 mM. Test compounds were then serially diluted 1:5 in DMSO for an 11-point concentration response and further diluted in the assay buffer bringing all compound concentrations to a final range of 100 μM to 10 pM in 2.5% DMSO. The assay was performed in white 96-well, flat-bottom, half-area, non-binding assay plate (Corning #3642) in assay buffer consisting of 20 mM HEPES (pH 7.5), 10 mM MgCl2*6H2O, 100 μM sodium orthovanadate, 0.05% CHAPS and 0.1% bovine serum albumin. A 10 μL aliquot of compound from each well of the intermediate dilution plate and 20 μL of a 2×JAK substrate/enzyme solution containing acceptor substrate (800 nM Abl peptide), JAK enzyme (10 nM JAK1, JAK2, JAK3, or TYK2), and 1,4-Dithiothreitol (DTT, 2 μM) were added to all wells. The reaction was initiated by the addition of 10 μL of 4× stock solution ATP (2 μM). Reactions were thoroughly mixed manually, covered and allowed to incubate at room temperature for 75 min. Protein kinase activity was quantitated using Promega's KINASE-GLO™ luminescent Kinase Assay Kit according to the manufacturer's directions. ATP concentrations remaining in Test wells following the termination of the enzymatic reaction were compared against control wells containing equivalent amounts of DMSO containing no inhibitor (CTRL). […] Percent of Control (POC) values were determined for each concentration of compound tested according to the equation:
(§2) [formula] • IC50 values were calculated using the following 4-parameter logistic curve-fitting algorithm:
(§3) [formula] • IC50 values were converted to Ki values using the Cheng-Prusoff Equation: […]

[2] = biological target: T1, JAK3 (Homo sapiens, UniProt P52333); experiment: JAK assay (KINASE-GLO luminescent kinase assay), JAK3
T1 sequence (P52333 1-1124): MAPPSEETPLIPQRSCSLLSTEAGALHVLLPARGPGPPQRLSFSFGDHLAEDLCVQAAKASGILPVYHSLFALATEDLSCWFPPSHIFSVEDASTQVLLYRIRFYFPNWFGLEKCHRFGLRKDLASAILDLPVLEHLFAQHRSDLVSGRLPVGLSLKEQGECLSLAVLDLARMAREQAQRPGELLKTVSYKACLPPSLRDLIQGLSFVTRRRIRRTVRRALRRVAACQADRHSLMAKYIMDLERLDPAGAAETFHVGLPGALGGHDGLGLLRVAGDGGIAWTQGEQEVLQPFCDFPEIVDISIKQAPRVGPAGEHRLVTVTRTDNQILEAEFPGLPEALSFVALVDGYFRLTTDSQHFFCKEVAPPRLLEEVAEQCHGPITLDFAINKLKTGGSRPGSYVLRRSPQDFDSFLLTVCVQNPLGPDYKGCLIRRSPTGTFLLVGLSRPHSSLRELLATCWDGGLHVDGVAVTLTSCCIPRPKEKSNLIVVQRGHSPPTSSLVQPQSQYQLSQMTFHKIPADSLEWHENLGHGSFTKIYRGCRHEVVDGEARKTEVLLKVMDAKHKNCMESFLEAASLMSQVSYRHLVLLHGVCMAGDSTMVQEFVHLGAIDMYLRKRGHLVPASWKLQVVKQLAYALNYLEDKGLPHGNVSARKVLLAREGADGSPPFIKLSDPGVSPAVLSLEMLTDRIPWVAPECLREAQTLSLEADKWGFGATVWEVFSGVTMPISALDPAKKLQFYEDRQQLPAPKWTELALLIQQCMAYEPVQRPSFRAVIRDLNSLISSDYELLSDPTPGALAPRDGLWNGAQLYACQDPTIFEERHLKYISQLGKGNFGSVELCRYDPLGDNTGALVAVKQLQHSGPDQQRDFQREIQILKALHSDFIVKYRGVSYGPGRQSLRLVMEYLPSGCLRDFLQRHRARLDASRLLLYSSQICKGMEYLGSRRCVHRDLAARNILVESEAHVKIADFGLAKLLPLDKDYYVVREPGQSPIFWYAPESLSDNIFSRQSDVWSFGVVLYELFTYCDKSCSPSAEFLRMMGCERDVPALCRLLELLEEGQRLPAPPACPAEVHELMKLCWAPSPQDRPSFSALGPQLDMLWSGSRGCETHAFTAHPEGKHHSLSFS
Description: as §1, §2, §3

[3] = biological target: TYK2 (Homo sapiens, UniProt P29597); experiment: JAK assay (KINASE-GLO luminescent kinase assay), TYK2
Sequence of TYK2 (P29597 whole entry): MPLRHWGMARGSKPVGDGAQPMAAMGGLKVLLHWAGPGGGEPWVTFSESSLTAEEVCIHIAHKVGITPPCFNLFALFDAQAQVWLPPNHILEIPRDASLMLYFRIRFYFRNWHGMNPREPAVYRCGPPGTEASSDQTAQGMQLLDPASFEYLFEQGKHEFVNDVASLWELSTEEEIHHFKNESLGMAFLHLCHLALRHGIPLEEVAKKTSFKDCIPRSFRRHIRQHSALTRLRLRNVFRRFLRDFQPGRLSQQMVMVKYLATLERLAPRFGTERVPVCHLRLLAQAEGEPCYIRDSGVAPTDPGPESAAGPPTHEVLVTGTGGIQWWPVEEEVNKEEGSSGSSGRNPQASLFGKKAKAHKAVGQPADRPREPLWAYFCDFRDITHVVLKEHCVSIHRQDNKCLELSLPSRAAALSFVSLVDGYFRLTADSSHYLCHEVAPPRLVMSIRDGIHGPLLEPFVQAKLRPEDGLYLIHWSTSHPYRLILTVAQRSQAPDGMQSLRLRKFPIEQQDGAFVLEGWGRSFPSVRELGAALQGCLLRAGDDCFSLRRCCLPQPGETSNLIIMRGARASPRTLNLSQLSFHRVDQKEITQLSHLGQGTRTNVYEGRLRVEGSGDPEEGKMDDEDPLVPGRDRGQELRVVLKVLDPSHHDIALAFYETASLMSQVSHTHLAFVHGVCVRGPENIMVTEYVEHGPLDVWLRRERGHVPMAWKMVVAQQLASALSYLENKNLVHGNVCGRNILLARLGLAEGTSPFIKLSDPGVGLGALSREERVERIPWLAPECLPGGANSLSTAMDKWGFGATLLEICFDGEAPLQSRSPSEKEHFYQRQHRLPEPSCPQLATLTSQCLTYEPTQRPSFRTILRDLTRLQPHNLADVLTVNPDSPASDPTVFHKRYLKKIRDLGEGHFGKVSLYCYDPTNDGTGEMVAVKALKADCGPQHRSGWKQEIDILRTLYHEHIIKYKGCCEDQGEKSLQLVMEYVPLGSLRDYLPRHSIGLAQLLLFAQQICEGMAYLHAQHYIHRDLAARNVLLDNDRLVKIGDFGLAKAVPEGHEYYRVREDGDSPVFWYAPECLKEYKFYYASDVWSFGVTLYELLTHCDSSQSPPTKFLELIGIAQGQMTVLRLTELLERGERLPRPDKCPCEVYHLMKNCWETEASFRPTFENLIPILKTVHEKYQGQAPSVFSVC
Description: as §1, with “A 20 μL aliquot of the 10 mM solutions was transferred to individual wells in column 1 of a 96-well polypropylene microtiter plate (Corning #3363) and diluted with DMSO to give a final compound concentration of 4 mM.” left out
as §2, §3

[4] = biological target: JAK2 (Homo sapiens, UniProt O60674); experiment: JAK assay (KINASE-GLO luminescent kinase assay), JAK2
Sequence of JAK2 (O60674 whole entry): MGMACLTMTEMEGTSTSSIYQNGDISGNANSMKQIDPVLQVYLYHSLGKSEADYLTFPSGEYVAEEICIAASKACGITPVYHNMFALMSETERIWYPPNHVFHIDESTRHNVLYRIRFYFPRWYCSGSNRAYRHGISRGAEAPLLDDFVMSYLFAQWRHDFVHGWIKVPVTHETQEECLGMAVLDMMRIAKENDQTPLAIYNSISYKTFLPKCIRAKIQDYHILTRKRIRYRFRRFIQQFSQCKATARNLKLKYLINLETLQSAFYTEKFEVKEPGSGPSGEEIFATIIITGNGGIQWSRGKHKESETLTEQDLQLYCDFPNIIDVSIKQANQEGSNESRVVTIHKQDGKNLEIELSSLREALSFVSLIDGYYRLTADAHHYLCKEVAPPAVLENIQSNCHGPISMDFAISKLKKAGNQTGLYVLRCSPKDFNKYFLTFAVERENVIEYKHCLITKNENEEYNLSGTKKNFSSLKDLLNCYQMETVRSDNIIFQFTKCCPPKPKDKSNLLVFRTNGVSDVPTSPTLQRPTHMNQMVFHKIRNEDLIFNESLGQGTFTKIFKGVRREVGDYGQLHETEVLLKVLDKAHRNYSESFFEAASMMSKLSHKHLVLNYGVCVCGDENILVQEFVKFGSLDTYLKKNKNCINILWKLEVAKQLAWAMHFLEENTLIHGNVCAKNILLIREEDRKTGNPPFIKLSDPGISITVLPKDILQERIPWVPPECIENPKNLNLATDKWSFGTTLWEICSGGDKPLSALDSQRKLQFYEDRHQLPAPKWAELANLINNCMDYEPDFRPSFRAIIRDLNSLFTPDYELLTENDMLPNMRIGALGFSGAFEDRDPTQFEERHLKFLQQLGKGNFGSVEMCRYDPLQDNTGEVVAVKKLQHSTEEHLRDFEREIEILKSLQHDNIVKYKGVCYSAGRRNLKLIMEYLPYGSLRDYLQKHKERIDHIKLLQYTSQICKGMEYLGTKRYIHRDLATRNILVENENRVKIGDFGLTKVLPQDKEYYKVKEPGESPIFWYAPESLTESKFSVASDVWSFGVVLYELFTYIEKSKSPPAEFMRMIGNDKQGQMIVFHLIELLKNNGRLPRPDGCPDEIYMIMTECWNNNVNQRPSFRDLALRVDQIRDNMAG
Description: as §1, §2, §3

Sequence of JAK1 (P23458 whole entry): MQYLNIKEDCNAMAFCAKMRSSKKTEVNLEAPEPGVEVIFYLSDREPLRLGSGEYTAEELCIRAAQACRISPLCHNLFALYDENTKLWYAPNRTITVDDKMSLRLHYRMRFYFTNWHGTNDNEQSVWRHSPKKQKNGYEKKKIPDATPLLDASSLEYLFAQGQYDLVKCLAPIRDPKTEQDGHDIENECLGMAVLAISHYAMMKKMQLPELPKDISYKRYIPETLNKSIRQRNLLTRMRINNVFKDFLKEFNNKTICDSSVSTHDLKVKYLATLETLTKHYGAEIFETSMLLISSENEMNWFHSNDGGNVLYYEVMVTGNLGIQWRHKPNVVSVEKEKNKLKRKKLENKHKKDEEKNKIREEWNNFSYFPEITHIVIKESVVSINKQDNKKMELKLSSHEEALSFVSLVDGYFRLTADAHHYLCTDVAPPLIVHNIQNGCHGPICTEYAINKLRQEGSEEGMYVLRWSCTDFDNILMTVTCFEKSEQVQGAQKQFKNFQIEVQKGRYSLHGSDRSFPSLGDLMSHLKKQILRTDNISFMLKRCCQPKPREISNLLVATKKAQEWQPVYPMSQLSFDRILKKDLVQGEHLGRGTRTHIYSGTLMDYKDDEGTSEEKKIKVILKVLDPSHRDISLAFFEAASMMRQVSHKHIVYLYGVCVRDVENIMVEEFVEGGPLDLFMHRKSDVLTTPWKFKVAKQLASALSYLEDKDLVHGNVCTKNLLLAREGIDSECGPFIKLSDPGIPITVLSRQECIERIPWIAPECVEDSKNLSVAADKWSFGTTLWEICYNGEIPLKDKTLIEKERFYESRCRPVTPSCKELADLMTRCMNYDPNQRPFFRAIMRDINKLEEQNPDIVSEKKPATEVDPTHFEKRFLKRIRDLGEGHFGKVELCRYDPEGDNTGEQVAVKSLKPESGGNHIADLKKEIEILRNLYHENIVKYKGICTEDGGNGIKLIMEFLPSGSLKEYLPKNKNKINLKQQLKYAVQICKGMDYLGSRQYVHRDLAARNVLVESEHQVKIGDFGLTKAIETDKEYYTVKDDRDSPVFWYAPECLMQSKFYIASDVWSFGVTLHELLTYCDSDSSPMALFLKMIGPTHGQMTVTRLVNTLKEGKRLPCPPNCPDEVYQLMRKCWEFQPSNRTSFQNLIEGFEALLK

SMILES | IC50 [1] | IC50 [2] | IC50 [3] | IC50 [4]
Cc1cnc(NCCCN2CCOCC2)nc1-c1cnn(CCC#N)c1 [CC1═C(N═C(NCCCN2CCOCC2)N═C1)C3═C[N]] | > 50000 nM | > 50000 nM | < 100000 nM | < 100000 nM
Cc1cnc(NCCN2CCCCC2)nc1-c1cnn(CCC#N)c1 [CC1═C(N═C(NCCN2CCCCC2)N═C1)C3═C[N]] | > 50000 nM | > 50000 nM | > 50000 nM | > 50000 nM
Cc1cnc(NCCO)nc1-c1cnn(CCC#N)c1 [CC1═C(N═C(NCCO)N═C1)C2═C[N]] | < 100000 nM | < 100000 nM | < 100000 nM | < 100000 nM
C=CCNc1ncc(C)c(-c2cnn(CCC#N)c2)n1 [CC1═C(N═C(NCC═C)N═C1)C2═C[N]] | < 100000 nM | < 100000 nM | < 100000 nM | < 100000 nM
Cc1cnc(N2CCCCC2)nc1-c1cnn(CCC#N)c1 [CC1═C(N═C(N═C1)N2CCCCC2)C3═C[N]] | > 50000 nM | > 50000 nM | > 50000 nM | > 50000 nM
Cc1cc(Nc2ncc(Cl)c(-c3cnn(CCC#N)c3)n2)no1 [CC1═CC(═NO1)NC2═NC(═C] | < 1000 nM | < 1000 nM | < 100 nM | < 100 nM
Cc1ccc(Nc2ncc(C)c(-c3cnn(CC4(Cl)CC4)c3)n2)cc1S(C)(=O)=O [CC1═CC═C(NC2═NC(═C(C)C═N2)C3═C[N]] | < 100 nM | < 100 nM | < 100 nM | < 100 nM
Cc1cncc(Nc2ncc(C)c(-c3cnn(CC4(CF)CCC4)c3)n2)c1 [CC1═CN═CC(═C1)NC2═NC(═C] | < 100 nM | < 100 nM | < 100 nM | < 10 nM
Cc1cc(Nc2ncc(C)c(-c3cnn(CC4(CF)CCC4)c3)n2)ccn1 [CC1═NC═CC(═C1)NC2═NC(═C] | < 1000 nM | < 100 nM | < 100 nM | < 10 nM
Cc1cc(Nc2ncc(Cl)c(-c3cnn(CCC#N)c3)n2)on1 [CC1═NOC(═C1)NC2═NC(═C] | < 100 nM | < 1000 nM | < 100 nM | < 10 nM
Cc1cc(Nc2nc3c(c(-c4cnn(CC5(C#N)COC5)c4)n2)CN(C(=O)OC(C)(C)C)C3)sn1 [CC1═NSC(═C1)NC2═NC(═C3CN] | > 50000 nM | > 50000 nM | > 50000 nM | > 50000 nM
Cc1cc(Nc2ncc(C)c(-c3cnn(CC4(CF)CCC4)c3)n2)sn1 [CC1═NSC(═C1)NC2═NC═C(C)C] | < 10 nM | < 10 nM | < 10 nM | < 10 nM
CC(C)(C)OC(=O)N1CC(C#N)(Cn2cc(-c3nc(Nc4ccc(C(N)=O)cc4)ncc3Cl)cn2)C1 [CC(C)(C)OC(═O)N1CC(C1)(C[N]2C═C] | < 100 nM | < 100 nM | < 100 nM | < 10 nM
CC(C)(C)OC(=O)N1CC(CF)(Cn2cc(-c3nc(Nc4ccc(C(N)=O)cc4)ncc3Cl)cn2)C1 [CC(C)(C)OC(═O)N1CC(CF)(C1)C[N]2C═C] | < 100 nM | < 100 nM | < 100 nM | < 100 nM
CC(C)(C)OC(=O)N1CC(CO)(Cn2cc(-c3nc(Nc4ccc(C(N)=O)cc4)ncc3Cl)cn2)C1 [CC(C)(C)OC(═O)N1CC(CO)(C1)C[N]2C═C] | < 1000 nM | < 100 nM | < 1000 nM | < 100 nM
CC(C)(C)OC(=O)N1CCC(Nc2ncc(Cl)c(-c3cnn(CCC#N)c3)n2)C(F)(F)C1 (stereo not drawn) [CC(C)(C)OC(═O)N1CCC(NC2═NC(═C] | > 50000 nM | > 50000 nM | > 50000 nM | > 50000 nM
CC(C)(C)OC(=O)N1CCN(c2ccc(Nc3ncc(Cl)c(-c4cnn(CCC#N)c4)n3)cc2)CC1 [CC(C)(C)OC(═O)N1CCN(CC1)C2═CC═C] | < 100 nM | < 10 nM | < 10 nM | < 10 nM
CC(C)(C)OC(=O)NCc1cccc(Nc2ncc(Cl)c(-c3cnn(CC4(CF)CC4)c3)n2)c1 [CC(C)(C)OC(═O)NCC1═CC═CC] | 157 nM | < 10 nM | < 100 nM | < 100 nM
CC(=O)OCCc1ccc(Nc2ncc(Cl)c(-c3cnn(CCC#N)c3)n2)cc1 [CC(═O)OCCC1═CC═C(NC2═NC(═C] | < 100 nM | < 100 nM | < 10 nM | < 10 nM
CCc1cnc(Nc2cc(C)ns2)nc1-c1cnn(CC2(Cl)CC2)c1 [CCC1═C(N═C(NC2═CC] | < 100 nM | < 10 nM | < 100 nM | < 10 nM
CCS(=O)(=O)N1CC(CF)(Cn2cc(-c3nc(Nc4cc(C)ns4)ncc3Cl)cn2)C1 [CC[S](═O)(═O)N1CC(CF)(C[N]2C═C] | < 100 nM | < 100 nM | < 100 nM | < 10 nM
CCS(=O)(=O)N1CC(CO)(Cn2cc(-c3nc(Nc4cc(C)ns4)ncc3Cl)cn2)C1 [CC[S](═O)(═O)N1CC(CO)] | < 1000 nM | < 100000 nM | < 100000 nM | < 1000 nM
Cn1ccc(Nc2ncc(Cl)c(-c3cnn(CC4(C#N)COC4)c3)n2)cc1=O [CN1/C═C\C(═C/C1═O)NC2═NC(═C] | < 1000 nM | < 1000 nM | < 1000 nM | < 10 nM
Cc1cnc(Nc2ccc3c(c2)C(=O)N(C)C3=O)nc1-c1cnn(CC2(Cl)CC2)c1 [CN1C(═O)C2═C(C═C(NC3═NC(═C] | < 1000 nM | < 100 nM | < 100 nM | < 10 nM
Cc1cnc(Nc2ccc3c(c2)CN(C)C3)nc1-c1cnn(CC2(CF)CC2)c1 [CN1CC2═CC═C(NC3═NC(═C] | < 10 nM | < 10 nM | < 10 nM | < 10 nM
Cc1cc(Nc2ncc(C)c(-c3cnn(CC4(CF)CC4)c3)n2)ccc1N1CCN(C)CC1 [CN1CCN(CC1)C2═C(C)C═C(NC3═NC] | < 100 nM | < 10 nM | < 10 nM | < 10 nM
Cc1cnc(Nc2ccc(N3CCN(C)CC3)cc2)nc1-c1cnn(CC2(C#N)CC2)c1 [CN1CCN(CC1)C2═CC═C(NC3═NC(═C(C([2H])] | < 100 nM | < 10 nM | < 10 nM | < 10 nM
